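Following 48 hours of exposure in 96-well plates, responses at five concentrations were used to interpolate endpoints linearly. TGI: concentration producing complete growth inhibition.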
Assays:
Experiment in all cases: DTP human tumour cell line panel, 48 h
[1] = system: UO-31 renal
[2] = system: SK-OV-3 ovarian
[3] = system: HOP-62 NSCLC
[4] = system: MOLT-4 leukemia
[5] = system: 786-0 renal
[6] = system: MDA-N
[7] = system: SF-539 CNS
[8] = system: MCF7 breast
[9] = system: KM12 colon
[10] = system: HT29 colon

Row | Compound | TGI [1] | TGI [2] | TGI [3] | TGI [4] | TGI [5] | TGI [6] | TGI [7] | TGI [8] | TGI [9] | TGI [10]
1 | CCc1ccc2oc(-c3cc(O)c(-c4nc5cc(CC)ccc5o4)cc3O)nc2c1 | > 100 µM | > 100 µM | > 100 µM | > 100 µM | > 100 µM | > 100 µM | > 100 µM | > 100 µM | – | –
2 | CCCSc1ccc2[nH]c(/N=C/c3ccco3)cc2c1 | > 100 µM | > 100 µM | > 100 µM | – | > 100 µM | – | 42.5 µM | > 100 µM | > 100 µM | > 100 µM
3 | Cc1cc(C)cc(Nc2cc(=O)[nH]c(=O)[nH]2)c1 | > 100 µM | – | > 100 µM | > 100 µM | > 100 µM | > 100 µM | > 100 µM | > 100 µM | > 100 µM | > 100 µM
4 | O=C1c2ccccc2C(=O)N1Cc1ccccc1-c1c2nc(c(-c3ccccc3CN3C(=O)c4ccccc4C3=O)c3ccc([nH]3)c(-c3ccccc3CN3C(=O)c4ccccc4C3=O)c3nc(c(-c4ccccc4CN4C(=O)c5ccccc5C4=O)c4ccc1[nH]4)C=C3)C=C2 | > 100 µM | > 100 µM | > 100 µM | > 100 µM | > 100 µM | – | > 100 µM | – | > 100 µM | > 100 µM
5 | CCCCCC(=O)NC(=S)Nc1nn[nH]n1 | > 100 µM | > 100 µM | > 100 µM | > 100 µM | > 100 µM | > 100 µM | > 100 µM | > 100 µM | > 100 µM | –
6 | Cc1ccc(/C(O)=C/C(=O)C(=O)/C=C(\O)c2ccc(C)cc2C)c(C)c1 | 3.65 µM | 3.47 µM | 3.24 µM | 4.67 µM | 4.28 µM | – | 3.56 µM | 4.33 µM | 3.44 µM | > 20.8 µM
7 | CC(=O)C1=C(C)NC2C=CC=CN12 (stereo unspecified) | > 100 µM | > 100 µM | > 100 µM | > 100 µM | > 100 µM | – | > 100 µM | – | > 100 µM | > 100 µM
8 | Cc1cn(C(Cc2ccccc2)OCCO)c(=O)[nH]c1=O (stereo unspecified) | > 100 µM | – | > 100 µM | > 100 µM | > 100 µM | > 100 µM | > 100 µM | > 100 µM | > 100 µM | > 100 µM
9 | C1CNCCNCCN1 | > 100 µM | – | > 100 µM | > 100 µM | > 100 µM | > 100 µM | > 100 µM | > 100 µM | > 100 µM | > 100 µM
10 | Cc1[nH]c(=O)[nH]c(=O)c1/C=C/C(=O)O | > 1000 µM | > 1000 µM | > 1000 µM | > 1000 µM | – | – | > 1000 µM | > 1000 µM | > 1000 µM | > 1000 µM
11 | CCCCCCCCCCCCCCCCCC(=O)O[C@H](COC(=O)CCCCCCCCCCC)COC(=O)CCCCCCCCCCCCCCC | > 100 µM | > 100 µM | > 100 µM | > 100 µM | > 100 µM | – | – | – | – | > 100 µM
12 | O=C(O)c1ccc(S(=O)(=O)c2ccccc2[N+](=O)[O-])cc1 | – | > 10 µM | > 10 µM | > 10 µM | > 10 µM | > 10 µM | > 10 µM | > 10 µM | > 10 µM | > 10 µM
13 | NP(=O)(OCC1=CC(=O)c2ccccc2C1=O)N(CCBr)CCBr (stereo unspecified) | 24.1 µM | 30.9 µM | – | 10.8 µM | 28.6 µM | 3.66 µM | 18.7 µM | > 40.9 µM | 25 µM | 34.9 µM
14 | COC(=O)C1=C2SCc3cccc(c3)CSC3=C(C(=O)OC)SC(=C(S2)S1)S3 | > 100 µM | > 100 µM | > 100 µM | > 100 µM | > 100 µM | > 100 µM | – | > 100 µM | > 100 µM | –
15 | CC1CCOc2ccc(cc2)C=Nc2ccc(cc2)CCc2ccc(cc2)N=Cc2ccc(cc2)OCC1 (stereo unspecified) | > 100 µM | – | > 100 µM | > 100 µM | > 100 µM | > 100 µM | > 100 µM | > 100 µM | > 100 µM | > 100 µM
16 | O=c1[nH]/c(=C/c2ccc(OCc3ccccc3)cn2)c(=O)[nH]/c1=C/c1ccc(O)cc1 | 1.4 µM | > 100 µM | > 100 µM | 1.65 µM | 1.45 µM | 0.591 µM | 2.09 µM | > 100 µM | – | > 100 µM
17 | CN(C)Cc1cc(C(=O)/C=C/c2ccccc2Cl)cc(CN(C)C)c1O | 22.4 µM | – | 26.2 µM | 59.8 µM | 21.4 µM | 34.1 µM | 34 µM | 26.1 µM | 20.3 µM | 9.94 µM
18 | O=C(CSc1nnc(Cc2ccccc2)o1)Nc1ccc([N+](=O)[O-])cc1 | > 100 µM | > 100 µM | > 100 µM | > 100 µM | > 100 µM | – | > 100 µM | – | > 100 µM | > 100 µM
19 | CC(=O)OC1CC2C(C)(C)OC(=O)CC(OC(C)=O)[C@]2(C)C2CCC3(C)C(=CCC3[C@H]3COC(=O)C3)[C@]12C (stereo partly specified) | > 100 µM | > 100 µM | > 100 µM | 89.5 µM | > 100 µM | – | > 100 µM | – | > 100 µM | > 100 µM
20 | CCn1nc2c3c(ncn3C(C)(C)O2)c1=O | > 100 µM | > 100 µM | > 100 µM | > 100 µM | > 100 µM | > 100 µM | – | > 100 µM | > 100 µM | > 100 µM
21 | COc1cc(Nc2c3ccccc3nc3ccccc23)ccc1NS(C)(=O)=O | 16.9 µM | 30.8 µM | 24.3 µM | > 100 µM | – | – | 15.6 µM | – | – | –
22 | O=c1c2c([N+](=O)[O-])cccc2nc2[nH]c3ccccc3n12 | – | 24.6 µM | > 75 µM | > 75 µM | > 75 µM | > 75 µM | 25.3 µM | > 75 µM | > 75 µM | > 75 µM
23 | O=C(NCCCCCCNCc1cccc2ccccc12)Nc1cccc2ccccc12 | > 100 µM | – | > 100 µM | > 100 µM | > 100 µM | > 100 µM | > 100 µM | > 100 µM | > 100 µM | > 100 µM
24 | c1cc2nnnn2nc1N1CCCC1 | > 100 µM | > 100 µM | – | > 100 µM | > 100 µM | > 100 µM | > 100 µM | > 100 µM | > 100 µM | > 100 µM

Reference: PubChem BioAssay (NCI)
